In patent US8778302B2, “Procaspase 8-mediated disease targeting” (The University of British Columbia, priority 2007, dated 2014):
In brackets after ≈: the same amount, converted by molar mass.

Experiments:
[1] = in vitro cytotoxicity of ABX and Taxol; format: cell-based; details: Homo sapiens, A-431; A431 line
MIP/ZEO cells [2] = test: caspase 8/9 inhibition, cell viability by MTS, MIP/ZEO; format: cell-based, human
Protocol: (§1) caspase 8/9 Inhibition: Cells were seeded (96-well plates), and incubated 24 hours later (˜60% confluence) with 10-50 μM of Caspase 8-like inhibitor (z-IETD-fmk, Sigma) or Caspase 9-like inhibitor (z-LEHDfink•TFA, Sigma) for 30 minutes, followed by incubation with 1000 μM 5-FU for an additional 24 hours. Cell viability was assessed by MTS assay.

MIP/SP cells [3] = test: caspase 8/9 inhibition, cell viability by MTS, MIP/SP; format: cell-based, human
Protocol: as §1

MIP/SP cells [4] = test: TUNEL assay, MIP/SP; format: cell-based, human
Protocol: (§2) TUNEL Assay: Cells were seeded (24-well plates) to achieve ˜60% confluence 24 hours later for transient transfection with Caspase 8 siRNA. 36 hours later, cells were incubated with 1000 μM 5-FU for 36 hours, harvested (suspension and attached cells) and fixed onto glass slides with Shandon cytospin at 2000 rpm for 10 minutes and stained as per manufacturer's instructions (Promega). The number of TUNEL-positive cells was counted and averaged from four different fields (n=4 independent experiments, with slides read independently by two individuals in a blinded fashion).

[5] = tested on: Caspase 3/7 activity in MIP/SP cells; test: Caspase 3/7 assay (Caspase-Glo), MIP/SP; format: cell-based, human
Protocol: (§3) Cell viability was assessed by MTS assay (Promega) at 490 nm. […] Total cell lysates were isolated and 20 μg of total protein/sample were used in Caspase-Glo 3/7 Assay (Promega), using a 1:1 dilution of Caspase-Glo 3/7 Substrate. Relative luminescence units (RLU) was quantified using a Viktor2 1420 Multilabel counter (Perkin Elmer).

MIP/ZEO cells [6] = test: TUNEL assay, MIP/ZEO; format: cell-based, human; details: 5-FU
Protocol: as §2

MIP/5FU cells [7] = test: Cell viability (MTS) assay after Caspase 8 siRNA, MIP/5FU; format: cell-based, human; details: with Caspase 8 knock-down (FIG. 3B)
Protocol: (§4) Cell Lines: MIP101 and HCT116 (ATCC) human CRC cells were maintained in DMEM media supplemented with 1% penicillin-streptomycin, 1% kanamycin (Invitrogen) and 10% newborn calf serum at 37° C. and 5% CO2. […] MIP101 transfected with empty vector (VIIP/ZEO) and MIP101 cells stably transfected with SPARC (MIP/SP), were also supplemented with 0.01% zeocin (Invitrogen).
(§5) Cell viability was assessed by MTS assay (Promega) at 490 nm. Caspase 3/7 Assay: Cells were transiently transfected with 40 nM of Caspase 8 siRNA for 48 hours, and incubated with 1000 μM 5-FU for another 48 hours. Total cell lysates were isolated and 20 μg of total protein/sample were used in Caspase-Glo 3/7 Assay (Promega), using a 1:1 dilution of Caspase-Glo 3/7 Substrate. Relative luminescence units (RLU) was quantified using a Viktor2 1420 Multilabel counter (Perkin Elmer).

[8] = tested on: Caspase 3 activation in MIP/5FU cells; test: Caspase 3/7 assay (Caspase-Glo), MIP/5FU; format: cell-based, human; details: Caspase 8 siRNA or scramble control (FIG. 4A)
Protocol: as §5

MIP/ZEO cells [9] = test: Cell viability (MTS) assay after Caspase 8 siRNA, MIP/ZEO; format: cell-based, human; details: Caspase 8 knock-down
Protocol: as §4, §5

[10] = tested on: Caspase 3/7 activity in MIP/ZEO cells; test: Caspase 3/7 assay (Caspase-Glo), MIP/ZEO; format: cell-based, human
Protocol: as §3

MIP/SP cells [11] = test: Cell viability (MTS) assay after Caspase 8 siRNA, MIP/SP; format: cell-based, human; details: Caspase 8 gene silencing, after 5-FU treatment (0-1200 μM) (FIG. 3A)
HCT116 cells = test: Cell viability (MTS) assay after Caspase 8 siRNA, HCT116; format: cell-based, human; details: HCT116, Caspase 8 siRNA+5-FU
Protocol: as §4, §5

MIP/5FU cells [12] = test: TUNEL assay, MIP/5FU; format: cell-based, human; details: 5-FU treatment (FIG. 4B, C)
Protocol: as §2

[13] = tested on: Caspase 8 in MIP/SP tumors; test: Caspase 8 protein activity in MIP/SP tumor xenografts; format: in vivo, nude mice; details: MIP/SP tumors from animals treated with 5-FU (FIG. 6C)
Protocol: In addition, tumor xenografts of MIP/ZEO and MIP/SP cells from nude mice treated with either 5-FU (three consecutive days) or saline, were collected after the 1st cycle of treatment and homogenized (Kinematica, POLYTRON-Aggregate). Lysates were then prepared for immunoblot or RT-PCR. […] Similarly, cells seeded on coverslips at 150,000 cells/well in a E-well plate, treated 24 hours later with 1000 μM 5-FU for 2 hours were then fixed in 2% paraformaldehyde and processed for immunofluorescence staining as previously described [27]. In both cases, α-caspase 8 (1:50, paraffin-embedded tissues; 1:100, cells on coverslips) antibody was used and incubated overnight at 4° C., and counterstained with DAPI. Zeiss Axioplan 2 Fluorescence microscope was used for image capture.

Procaspase 8 = target: T1, Procaspase 8 (Homo sapiens, UniProt Q14790); test: immunoprecipitation of Procaspase 8 with truncated SPARC polypeptides; format: binding; details: truncated SPARC polypeptide near amino terminus (MIP/NT), FIG. 8
T1 construct: endogenous in cells; host or cells: MIP101-derived cells expressing SPARC fragments (MIP/NT, MIP/FS, MIP/EC)
Protocol: Immunopreciptation was performed with anti-histidine tag antibody (IP: His) (See FIG. 8A) or an anti-Caspase 8 antibody (IP: Capsaase 8) (See FIG. 8B) in the presence of Procaspase 8 and truncated SPARC polypeptides comprising a sequence near the SPARC amino terminus (SEQ ID NO: 20) (MIP/NT), a sequence from the SPARC follistatin-like domain (SEQ ID NO: 22) (MIP/FS), a sequence from the SPARC extracellular domain (SEQ ID NO: 24) (MIP/EC) or a control antibody (IgG).

[14] = target: T2, interaction between Bcl-2 and Procaspase 8 (Homo sapiens, UniProt Q14790); test: co-immunoprecipitation of Bcl-2 and Procaspase 8 with exogenous SPARC; format: binding; details: addition of exogenous SPARC, 10 μg/ml for 72-hrs; resistant cell lines (FIG. 9C)
T2 construct: lysates were separated into nuclear, cytosolic, and membrane fractions; endogenous in cells; host or cells: MIP/5FU (MIP101 resistant to 5-FU) and MiaPaca/CPT cells
Protocol: Cells were grown until ˜80% confluence, and lysates were separated into nuclear, cytosolic, and membrane fractions. 250 μg of individual cellular fractions were incubated with antibodies against HIS (1:100, Sigma), capsase 8 (N-terminus) (1:100, Abcam), Bcl-2 (1:100, Cell Signaling Technologies) or a non-specific anti-mouse IgG antibody as control (Cell Signaling Technologies), in PBS overnight (4° C.). Protein:Antibody mixture was then incubated with […] of Protein A:Protein G (Sigma) (1:1) beads for 4 hours (4° C.). For all complexes, beads were washed with PBS, and eluted with 2×SDS-loading buffer, and used for immunoblotting against caspase 8, HIS, or Bcl-2.
In order to determine the region of interaction between Bcl-2 and Procaspase 8, cells were also incubated with antibodies against caspase 8 targeting its C-terminus (Cell Signaling) or N-terminus (Abeam) in vitro for 24 hours at 1.5-3.0 μg prior to collecting and fractionating the cell lysates for immunoprecipitation. In addition, to assess if exogenous SPARC interferes with the interaction of procaspase 8 and Bcl-2, cells were incubated with 10 μg/ml of SPARC for 72-hrs, in the presence or absence of antibodies against SPARC (3 μg, Hematologic Technologies) for 24 hrs, prior to collection for cellular fractionation and immunoprecipitation.

[15] = tested on: Caspase 8 expression in MIP 101 tumor xenografts; test: Caspase 8 expression in MIP 101 mouse tumor xenografts; format: in vivo, NIH nude mice; details: mice administered SPARC as single agent (FIG. 6D)
Protocol: Animal Studies: Tumors harvested from xenografts from animals (NIH nude mice, 6 weeks old, Taconic Laboratories) were used for histology, RT-PCR or immunoblot. 2×10^6 MIP101 cells were injected into the left flank.
Experimental groups (2 animals/group) for this study included treatment with: SPARC, SPARC+5-FU, 5-FU only, and saline. In addition, tumor xenografts of MIP/ZEO and MIP/SP cells from nude mice treated with either 5-FU (three consecutive days) or saline, were collected after the 1st cycle of treatment and homogenized (Kinematica, POLYTRON-Aggregate). Lysates were then prepared for immunoblot or RT-PCR. All animals received care according to standard animal care protocol and guidelines. […] Similarly, cells seeded on coverslips at 150,000 cells/well in a E-well plate, treated 24 hours later with 1000 μM 5-FU for 2 hours were then fixed in 2% paraformaldehyde and processed for immunofluorescence staining as previously described. In both cases, α-caspase 8 (1:50, paraffin-embedded tissues; 1:100, cells on coverslips) antibody was used and incubated overnight at 4° C., and counterstained with DAPI. Zeiss Axioplan 2 Fluorescence microscope was used for image capture.

[16] = Homo sapiens, 1000 μM 5-FU for 24 hours only, read-out: decrease in cell viability

T2 sequence (Q14790 whole entry): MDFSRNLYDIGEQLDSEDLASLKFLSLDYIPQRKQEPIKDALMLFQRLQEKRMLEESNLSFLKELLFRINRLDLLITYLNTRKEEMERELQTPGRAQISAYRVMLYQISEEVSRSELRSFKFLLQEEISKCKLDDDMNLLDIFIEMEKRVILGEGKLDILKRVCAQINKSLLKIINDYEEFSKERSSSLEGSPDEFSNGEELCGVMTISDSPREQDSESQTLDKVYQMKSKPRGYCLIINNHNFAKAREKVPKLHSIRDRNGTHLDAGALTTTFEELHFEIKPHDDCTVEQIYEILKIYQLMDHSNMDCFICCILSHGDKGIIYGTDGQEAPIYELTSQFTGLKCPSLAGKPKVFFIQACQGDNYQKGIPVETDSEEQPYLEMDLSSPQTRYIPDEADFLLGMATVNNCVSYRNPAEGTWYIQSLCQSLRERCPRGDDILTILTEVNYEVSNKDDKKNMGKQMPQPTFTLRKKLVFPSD
T1 sequence (Q14790 whole entry, the tested form may be a part): as the sequence (Q14790 whole entry) above

CC(=O)O[C@H]1C(=O)[C@@]2(C)[C@H]([C@H](OC(=O)c3ccccc3)[C@]3(O)C[C@H](OC(=O)[C@H](O)[C@@H](NC(=O)c4ccccc4)c4ccccc4)C(C)=C1C3(C)C)[C@]1(OC(C)=O)CO[C@@H]1C[C@@H]2O [TAX, Taxol]
IC50 [1]: 0.012 µg/mL (≈ 0.0141 µM)

z-IETD-fmk
effect of Caspase 8-like inhibitor on 5-FU-induced decrease in cell viability (MIP/ZEO cells [2]; inhibitor 50 μM, then 5-FU): no such effect could be demonstrated
effect of Caspase 8-like inhibitor on 5-FU-induced decrease in cell viability (MIP/SP cells [3]; pre-incubation with inhibitor (as low as 10 μM), then 1000 μM 5-FU): prevented a significant decrease in cell viability

z-LEHD-fmk•TFA
effect of Caspase 9-like inhibitor on 5-FU-induced decrease in cell viability (MIP/ZEO cells [2]; inhibitor then 5-FU): preventing a significant decrease in cell viability
effect of Caspase 9-like inhibitor on 5-FU-induced decrease in cell viability (MIP/SP cells [3]; inhibitor then 5-FU): preventing a significant decrease in cell viability

O=c1[nH]cc(F)c(=O)[nH]1 [5-FU, 5-fluorouracil]
decrease in cell viability (MIP/ZEO cells [2]; 5-FU-treated after pre-incubation with Caspase 8-like inhibitor): 14.0±4.6%
cytotoxicity at 1000 µM (MIP/ZEO cells [2]; [16]): 21 ± 5.9%
cytotoxicity at 1000 µM (MIP/SP cells [3]; [16]): 16.8 ± 4.5%
apoptotic cells (TUNEL) (MIP/SP cells [4]; MIP/SP exposed to 5-FU, no Caspase 8 inhibition): 20.7±6.9%
apoptotic cells (TUNEL) (MIP/SP cells [4]; MIP/SP, 5-FU following Caspase 8 gene knock-down): 0.5±0.5%
Caspase 3/7 activity ([5]; MIP/SP cells, 12 hours after incubation with 5-FU): 16397.0±2787.6 RLU
Caspase 3/7 activity ([5]; MIP/SP transfected with Caspase 8 siRNA, 5-FU treated): 291.0±34.7 RLU
Caspase 3/7 activity ([5]; control MIP/SP cells, 5-FU treated): 5501.0±800.0 RLU
apoptotic cells (TUNEL) (MIP/ZEO cells [6]; no transfection with Caspase 8 siRNA): 12.2±0.7%
apoptotic cells (TUNEL) (MIP/ZEO cells [6]; transfection with Caspase 8 siRNA): 12.5±2.4%
effect of 5-FU on cell viability (MIP/5FU cells [7]): remained unaffected
Caspase 3 activation [8]: No Caspase 3 activation was observed
cell viability (MIP/ZEO cells [9]; following 5-FU treatment (FIG. 3B)): 75.5±0.5%
viability at 1200 µM (MIP/ZEO cells [9]; Homo sapiens, 5-FU 1200 μM (FIG. 3A)): 52.1 ± 1.7%
Caspase 3/7 activity ([10]; MIP/ZEO cells, 12 hours after incubation with 5-FU): 9954.0±1104.8 RLU
Caspase 3/7 activity ([10]; MIP/ZEO, 5-FU, scramble control): 1915.0±661.3 RLU
Caspase 3/7 activity ([10]; MIP/ZEO, 5-FU, transfected with Caspase 8 siRNA): 2321.3±661.3 RLU
cell viability (viable cells) (MIP/SP cells [11]): 97.6±1.4%
viable cells (HCT116 cells): 88.2±2.3%
apoptosis response (TUNEL) (MIP/5FU cells [12]): did not respond to 5-FU treatment significantly
Caspase 8 protein activity in tumors [13]: highest

SEQ ID NO: 20: truncated SPARC polypeptide comprising a sequence near the SPARC amino terminus (APQQEALPDETEVVEETVAEVTEVSVGANPVQVEVGEFDDGAEETEEEVVA; SPARC Polypeptide Expressed in MIP/NT cells)
interaction with Procaspase 8 (co-immunoprecipitation) (Procaspase 8): involves a SPARC domain which is within the amino acid sequence of SEQ ID NO: 20

B1: SPARC: Secreted Protein, Acidic, Rich in Cysteines, a 281 amino acid glycoprotein (protein)
chain: APQQEALPDETEVVEETVAEVTEVSVGANPVQVEVGEFDDGAEETEEEVVAENPCQNHHCKHGKVCELDENNTPMCVCQDPTSCPAPIGEFEKVCSNDNKTFDSSCHFFATKCTLEGTKKGHKLHLDYIGPCKYIPPCLDSELTEFPLRMRDWLKNVLVTLYERDEDNNLLTEKQKLRVKKIHENEKRLEAGDHPVELLARDFEKNYNMYIFPVHWQFGQLDQHPIDGYLSHTELAPLRAPLIPMEHCTTRFFETCDLDNDKYIALDEWAGCFGIKQKDIDKDLVI
modifications: left off: small tags and cut ends
notes: Secreted Protein, Acidic, Rich in Cysteines, a 281 amino acid glycoprotein
blocking of interaction between Bcl-2 and Procaspase 8 [14]: can be blocked
Caspase 8 expression in tumor xenografts [15]: higher levels of Caspase 8
